Results as given in US8785649B2, “Ethynylphenylamidine compound or salt thereof, method for producing same, and fungicide for agricultural and horticultural use” (priority 2010, dated 2014).

Tests used:
[1] = tested on: wheat powdery mildew (Erysiphe graminis); assay: Test of preventive effect on wheat powdery mildew; conditions: wheat seedlings
[2] = tested on: powdery mildew (Sphaerotheca cucurbitae); assay: Test of effect on cucumber powdery mildew, vaporization properties; assay type: in vivo; conditions: 100 ppm drug solution dropped on aluminum foil on cucumber first leaf; seven days after inoculation; 2 cm or more = vaporization effect
Method: A 10-mm square piece of aluminum foil was attached with a double-sided tape on the first leaf of cucumber planted in a 7.5-cm-diameter pot. […] The drug solution was added dropwise in […] using a micropipette. After air-drying the drug solution, the leaf was inoculated by spraying with a spore suspension of powdery mildew (Sphaerotheca cucurbitae). Seven days after inoculation, the diameter of a disease development inhibition circle on the cucumber first leaf was measured. The appearance of necrotic lesions on the leaf was examined in comparison with the untreated plot. There was judged to be a vaporization effect when an inhibition circle having a diameter of 2 cm or more was formed around the aluminum foil.

[3] = tested on: Wheat scab (Microdochium nivale); assay: Test of inhibition of growth of wheat scab mycelium; assay type: cell-based; conditions: read-out: inhibition rate (mycelium growth length)
[4] = treatment concentration 100 ppm

Row | Compound | Diameter of disease development inhibition circle [2] [cm] | further results
1 | CCN(C)/C=N/c1cc(C)c(-c2ccc(C(C)(C)C)cc2)cc1C [Reference Compound B] | 0 | Preventive value ([1]; treatment concentration 10 ppm): 40; Preventive value ([1]; treatment concentration 20 ppm): 70; Preventive value ([1]; treatment concentration 40 ppm): 70; Preventive value [1, 4]: 95
2 | Cc1cc(N=CN(C)C)c(C)cc1C#CC(C)(C)C [Compound 52, N,N-dimethyl-N′-[2,5-dimethyl-4-(3,3-dimethyl-1-butynyl)phenyl]formamidine] | – | inhibition at 10 ppm [3]: 100%
3 | CCN(C)C=Nc1cc(Cl)c(C#C[Si](C)(C)C)cc1C [Compound 93] | 6.0 | –
4 | CCN(C)/C=N/c1ccc(-c2ccc(C(C)(C)C)cc2)cc1C [Reference Compound A] | 0 | Preventive value ([1]; treatment concentration 10 ppm): 10; Preventive value ([1]; treatment concentration 20 ppm): 20; Preventive value ([1]; treatment concentration 40 ppm): 70; Preventive value [1, 4]: 100
5 | CCN(C)C=Nc1cc(C)c(C#C[Si](C)(C)C(C)(C)C)cc1C.Cl [Compound 163] | 8.0 | –
6 | CCN(C)C=Nc1cc(F)c(C#C[Si](C)(C)C)cc1C.Cl [Compound 176] | 7.0 | –
7 | CCN(C)C=Nc1cc(C)c(C#CC[Si](C)(C)C)cc1C [Compound 127] | 2.0 | –
8 | Cc1cc(N=CN2CCCCC2)c(C)cc1C#C[Si](C)(C)C [Compound 147] | 2.5 | –
9 | CCN(C)C=Nc1cc(C)c(C#C[Si](C)(C)C)cc1C [Compound 123, N-ethyl-N-methyl-N′-[2,5-dimethyl-4-(2-trimethylsilyl-1-ethynyl)phenyl]formamidine] | 9.5 | Preventive value ([1]; treatment concentration 10 ppm): 100; Preventive value ([1]; treatment concentration 20 ppm): 100; Preventive value ([1]; treatment concentration 40 ppm): 100; Preventive value [1, 4]: 100; inhibition at 10 ppm [3]: 100%
10 | Cc1cc(N=CN(C)C(C)C)c(C)cc1C#C[Si](C)(C)C(C)(C)C [Compound 171] | 7.0 | –
11 | CCN(C)C=Nc1cc(Cl)c(C#CC(C)(C)C)cc1C.Cl [Compound 172] | 7.0 | –
12 | CCN(C)C=Nc1cc(F)c(C#C[Si](C)(C)C)cc1C [Compound 158] | 3.75 | –
13 | CCN(C)C=Nc1cc(C)c(C#C[Si](C)(C)C(C)(C)C)cc1C [Compound 126] | 6.5 | –
14 | CCN(C)C=Nc1cc(C)c(C#C[Si](CC)(CC)CC)cc1C [Compound 124] | 3.75 | –
15 | CCN(C)C=Nc1ccc(C#CC(C)(C)C)cc1C [Compound 66, N-ethyl-N-methyl-N′-[2-methyl-4-(3,3-dimethyl-1-butynyl)phenyl]formamidine] | – | inhibition at 10 ppm [3]: 100%
16 | CC1(C)[C@H]2CC[C@]1(CS(=O)(=O)O)C(=O)C2.CCN(C)C=Nc1cc(C)c(C#C[Si](C)(C)C)cc1C [Compound 175] | 7.0 | –
17 | CCN(C)C=Nc1cc(Cl)c(C#CC(C)(C)C)cc1C [Compound 91] | 6.0 | –
18 | CCN(C)C=Nc1cc(C)c(C#CC(C)(C)O[Si](C)(C)C)cc1C [Compound 161] | 6.0 | –
19 | Cc1cc(N=CN(C)C)c(C)cc1C#C[Si](C)(C)C [Compound 59, N,N-dimethyl-N′-[2,5-dimethyl-4-(2-trimethylsilyl-1-ethynyl)phenyl]formamidine] | – | inhibition at 10 ppm [3]: 100%
20 | CCN(C)C=Nc1cc(C)c(C#CC(C)(C)C)cc1C [Compound 98] | 9.5 | –
21 | N-ethyl-N-methyl-N′-[2,5-dimethyl-4-(2-trimethylsilyl-1-ethynyl)phenyl]formamidine (+)-camphorsulfonate [Compound 174] | 7.0 | –
22 | CCN(C)C=Nc1cc(C)c(C#CC(C)(C)C)cc1Cl [Compound 85] | 6.0 | –
23 | CCN(C)C=Nc1cc(C)c(C#C[Si](C)(C)C)cc1C.Cl [Compound 162, N-ethyl-N-methyl-N′-[2,5-dimethyl-4-(2-trimethylsilyl-1-ethynyl)phenyl]formamidine hydrochloride] | 8.0 | –
24 | CCN(C)C=Nc1ccc(C#C[Si](CC)(CC)CC)cc1C [Compound 69] | 2.75 | –
